In PMC4254627 (Bioorganic & medicinal chemistry letters, 2014):
Entries after “also recorded” stand apart in the source; their conditions may differ.

Assays:
[1] = Solubility / precipitation behaviour in pH 7.4 buffer; assay type: physicochemical
Stability = assay type: in vitro ADME, human; conditions: 50% HP vs pH 7.4 buffer

## CC(C)[C@H](N)C(=O)O[C@@H]1CC[C@@]2(O)[C@H]3Cc4ccc(O)c5c4[C@@]2(CCN3CC2CC2)[C@H]1O5 [Prodrug 6b]
[1]
  solubility in pH 7.4 buffer: precipitate

## CCC(C)[C@H](N)C(=O)O[C@@H]1CC[C@@]2(O)[C@H]3Cc4ccc(O)c5c4[C@@]2(CCN3CC2CC2)[C@H]1O5 (stereo partly drawn) [Prodrug 6d]
[1]
  solubility in pH 7.4 buffer: highly insoluble; also recorded: precipitate

## NCCC(=O)O[C@@H]1CC[C@@]2(O)[C@H]3Cc4ccc(O)c5c4[C@@]2(CCN3CC2CC2)[C@H]1O5 [Prodrug 6e]
Stability
  reduction of half-life in HP compared to pH 7.4 PBS buffer: approximately 5.4 fold
